# Laboratory results taken from patent US10442788B2, “Hepatitis B antiviral agents” (ENANTA PHARMACEUTICALS, INC., priority 2015, dated 2019).
# Columns and labels:
# HBV = assay: HepAD38 antiviral assay: reduction of viral product accumulation (virion DNA by qPCR, HBsAg or HBeAg by ELISA); assay type: cell-based; conditions: Hepatitis B virus, 120 h; HepAD38 cells, five days after compound addition; 50% reduction of viral product accumulation relative to no drug controls; read-out: HepAD38 EC50
# Procedure, shortened: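 Tetracycline-washed HepAD38 cells treated with compound (DMSO diluted 1:200) for 5 days, or 8 days with media and compound refreshed on d2 and d5. Virion DNA from lysates quantified by qPCR; HBsAg or HBeAg by ELISA. EC50 is the concentration giving 50% reduction versus no-drug controls, reported as ranges A<1 μM, B 1-10 μM, C>10 μM.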
# [1] = Compound toxicity, ATPLite total ATP levels; assay type: cell-based; conditions: human, HepAD38 cells; 15,000 cells/well, three days after compound addition; 50% reduction of total ATP levels relative to no drug controls
# Experimental: Methods: HepAD38 cells are maintained as previously reported (Ladner et al, Antimicrob. Agents Chemother. 1997, […], 1715). Briefly, cells are passaged upon attaining confluency in DMEM/F12 media in the presence of 10% FBS, Penn/Strep, 250 μg/mL G418, and 1 ug/ml tetracycline. Novel compounds are screened by first washing cells three times with PBS to remove tetracycline, and plating in 96 well plates at 35,000 cells/well. Compounds dissolved in DMSO are then diluted 1:200 into wells containing cells. Five days after compound addition, material is harvested for analysis. For an extended 8 day analysis, cells are plated and treated as described above, but media and compound are refreshed on d2 and d5 post initial treatment.
# Compound toxicity is evaluated by seeding cells at 15,000 cells/well and treating with compound as described above. Three days after compound addition, cells are treated with ATPLite reagent and compound concentrations that reduce total ATP levels in wells by 50% relative to no drug controls (CC50) are reported; CC50 ranges are as follows: A>30 μM; B 10-30 μM; C<10 μM.
Structure (SMILES),EC50 (HBV),CC50 at 3 days [1]
O=S(=O)(c1cc(-c2nc(-c3ccc(Br)c(Cl)c3)c[nH]2)ccc1Cl)N1CCC(O)CC1 [Example 82],< 1 µM,< 10 µM
O=S(=O)(c1cc(-c2nc(-c3ccc(C(F)(F)F)c(F)c3)c[nH]2)ccc1Cl)N1CCC(O)CC1 [Example 83],< 1 µM,< 10 µM
O=S(=O)(c1cc(-c2nc(-c3ccc(Cl)c(Br)c3)c[nH]2)ccc1Cl)N1CCC(O)CC1 [Example 87],< 1 µM,< 10 µM
Cc1cccc(-c2c[nH]c(-c3ccc(Cl)c(S(=O)(=O)N4CCC(O)CC4)c3)n2)c1 [Example 91],1 to 10 µM,> 30 µM
N#Cc1cccc(-c2c[nH]c(-c3ccc(Cl)c(S(=O)(=O)N4CCC(O)CC4)c3)n2)c1 [Example 92],1 to 10 µM,> 30 µM
COc1cccc(-c2c[nH]c(-c3ccc(Cl)c(S(=O)(=O)N4CCC(O)CC4)c3)n2)c1 [Example 93],> 10 µM,> 30 µM
O=S(=O)(c1cc(-c2nc(-c3cccc(C(F)(F)F)c3)c[nH]2)ccc1Cl)N1CCC(O)CC1 [Example 94],< 1 µM,10 to 30 µM
O=S(=O)(c1cc(-c2nc(-c3cccc(OC(F)(F)F)c3)c[nH]2)ccc1Cl)N1CCC(O)CC1 [Example 95],1 to 10 µM,> 30 µM
O=S(=O)(c1cc(-c2nc(-c3ccc(C4CC4)cc3)c[nH]2)ccc1Cl)N1CCC(O)CC1 [Example 101],< 1 µM,< 10 µM
C#Cc1ccc(-c2c[nH]c(-c3ccc(Cl)c(S(=O)(=O)N4CCC(O)CC4)c3)n2)cc1F [Example 102],1 to 10 µM,> 30 µM
O=S(=O)(c1cc(-c2nc(-c3ccc4[nH]ccc4c3)c[nH]2)ccc1Cl)N1CCC(O)CC1 [Example 103],< 1 µM,> 30 µM
CN(CCO)S(=O)(=O)c1cc(-c2nc(-c3ccc(Br)c(F)c3)c[nH]2)ccc1Cl [Example 104],< 1 µM,10 to 30 µM
COCCN(C)S(=O)(=O)c1cc(-c2nc(-c3ccc(Br)c(F)c3)c[nH]2)ccc1Cl [Example 105],< 1 µM,> 30 µM
CN(CCCO)S(=O)(=O)c1cc(-c2nc(-c3ccc(Br)c(F)c3)c[nH]2)ccc1Cl [Example 106],< 1 µM,< 10 µM
O=S(=O)(c1cc(-c2nc(-c3ccc(Br)c(F)c3)c[nH]2)ccc1Cl)N1CCCC1CO (centres unmarked) [Example 107],< 1 µM,> 30 µM
O=S(=O)(c1cc(-c2nc(-c3ccc(Br)c(F)c3)c[nH]2)ccc1Cl)N1CC(O)C1 [Example 108],1 to 10 µM,> 30 µM
O=S(=O)(c1cc(-c2nc(-c3ccc(Br)c(F)c3)c[nH]2)ccc1Cl)N1CCC(O)C1 (centres unmarked) [Example 109],< 1 µM,< 10 µM
O=S(=O)(c1cc(-c2nc(-c3ccc(Br)c(F)c3)c[nH]2)ccc1Cl)N1CCCC(O)C1 (centres unmarked) [Example 110],< 1 µM,> 30 µM
CC(C)NS(=O)(=O)c1cc(-c2nc(-c3ccc(Br)c(F)c3)c[nH]2)ccc1Cl [Example 111],< 1 µM,< 10 µM
CC(C)N(C)S(=O)(=O)c1cc(-c2nc(-c3ccc(Br)c(F)c3)c[nH]2)ccc1Cl [Example 112],< 1 µM,> 30 µM
CN(C1CCCCC1)S(=O)(=O)c1cc(-c2nc(-c3ccc(Br)c(F)c3)c[nH]2)ccc1Cl [Example 113],< 1 µM,< 10 µM
O=S(=O)(c1cc(-c2nc(-c3ccc(Br)c(F)c3)c[nH]2)ccc1Cl)N1CCC(O)C(F)C1 (centres unmarked) [Example 114],< 1 µM,> 30 µM
O=S(=O)(NCCO)c1cc(-c2nc(-c3ccc(Br)c(F)c3)c[nH]2)ccc1Cl [Example 115],< 1 µM,> 30 µM
O=S(=O)(NCCCO)c1cc(-c2nc(-c3ccc(Br)c(F)c3)c[nH]2)ccc1Cl [Example 116],< 1 µM,> 30 µM
CS(=O)(=O)CCNS(=O)(=O)c1cc(-c2nc(-c3ccc(Br)c(F)c3)c[nH]2)ccc1Cl [Example 117],< 1 µM,> 30 µM
